Reference: patent publication US11834432B2, “Substituted amino six-membered nitric heterocyclic ring compound and preparation and use thereof” (SHANGHAI INSTITUTE OF MATERIA MEDICA, CHINESE ACADEMY OF …, priority 2016, dated 2023)

Tests used:
[1] = biological target: FGFR1 kinase domain recombinant protein (Homo sapiens (Human), UniProt P11362); test: Inhibition of receptor tyrosine kinase FGFR1 activity (ELISA); format: biochemical; conditions: for inhibition at 0.1 µM: 1 h, read-out: Inhibition ratio (%) @ 0.1 μM
Description: 1. Preliminary Evaluation Inhibition on Receptor Tyrosine Kinase FGFR1 Activity of Compound
1. […] The liquid from the well was discarded. The plate was washed for three times with T-PBS (0.1% Tween-20 in potassium-free PBS, 200 μL/well), 5 minutes for each time. The elisa plate was dried in 37° C. dryer for 1-2 hours.
2. 49 μL of ATP solution diluted in reaction buffer (50 mM HEPES pH 7.4, 50 mM MgCl2, 0.5 mM MnCl2, 0.2 mM Na3VO4, 1 mM DTT) was added into each well, and 1 μL of the test compound was added to each well, and then 50 μL of FGFR1 kinase domain recombinant protein diluted in reaction buffer was added to initiate the reaction, and two control wells without ATP were required for each experiment. The reaction was performed on a Shaker (100 rpm) at 37° C. for 1 hour. The liquid from the well was discarded, and the plate was washed with T-PBS for three times.
3. The antibody PY99 dilution (antibody diluted 1:500 in T-PBS with BSA 5 mg/mL) was added at 100 μL/well, and shaken for 0.5 hours on a 37° C. shaker. The liquid from the well was discarded, and the plate was washed with T-PBS for three times.
4. The horseradish peroxidase-labeled goat anti-mouse second antibody dilution (antibody diluted 1:2000 in T-PBS with BSA 5 mg/mL) was added at 100 μL/well, and shaken for 0.5 hours on a 37° C. shaker. The liquid from the well was discarded, and the plate was washed with T-PBS for three times.
5. 2 mg/mL OPD coloration solution (diluted with 0.1 M citric acid-sodium citrate buffer containing 0.03% H2O2 (pH=5.4)) was added at 100 μL/well, and reacted for 1-10 minutes at 25° C. in darkness.
6. The reaction was quenched with 50 μL/well of 2M H2SO4, and the plate was read using a tunable microplate microplate reader VERSAmax at 490 nm.
(§1) The IC50 values were obtained by four-parameter regression analysis using the software supplied with the microplate reader.

SNU16 cells = test: Inhibition of proliferation of SNU16 cells (CCK-8); format: cell-based; conditions: Homo sapiens, SNU-16, 72 h; for inhibition at 0.01 µM: 10 nM; for inhibition at 0.01 µM / inhibition at 0.1 µM / inhibition at 1 µM: 72 h, read-out: Inhibition ratio (%); for inhibition at 0.1 µM: 100 nM; for inhibition at 1 µM: 1000 nM
Description: The inhibitory effect on proliferation of SNU16 cells of a compound was examined by CCK-8 Cell Counting Kit (Dojindo). The steps are as follows: SNUI 6 cells at Logarithmic growth phase were seeded in a 96-well culture plate at appropriate density, 90 ul for each well. After cultured overnight, different concentrations of drugs were added and treated for 72 h, while solvent control well was set (negative control). After 72 h, the influence of the compound on the proliferation of cells was observed by CCK-8 cell counting kit (Dojindo). 10 μL of CCK-8 reagent was added to each well. After incubated for 2-4 hours in a 37° C. incubator, the plate was read with SpectraMax 190 microplate reader at wavelength 450 nm.
as §1

[2] = test system: human gastric cancer SNU-16 subcutaneously transplanted tumor; test: Growth of subcutaneously transplanted tumor in human gastric cancer SNU-16 nude mice; format: in vivo
Description: The human gastric cancer SNU-16 cell strain was preserved in our laboratory.
S10 groups (30 mg/kg and 10 mg/kg) were orally administered once a day for 21 days; AZD4547 group (10 mg/kg) was administered orally once a day for 21 days; solvent control group was given the same amount of water for injection.

[3] = test system: human gastric cancer SNU-16 subcutaneously transplanted tumor; test: as above; format: in vivo; remark: listed apart in the source
[4] = test system: human lung cancer NCI-H1581 subcutaneously transplanted tumor; test: Growth of subcutaneously transplanted tumor in human lung cancer NCI-H1581 nude mice
Description: The cell strain was inoculated in the right axilla of the nude mice, and the amount of cells inoculated was 5×10^6/mouse to form transplanted tumor, which was directly inoculated and used.
The tumor tissue in the prosperous growth period was cut into 1.5 mm^3, and inoculated subcutaneously in the right axilla of the nude mice under aseptic conditions. The diameter of the transplanted tumor in the nude mice was measured with a vernier caliper, and the animals were randomly grouped when the average volume of tumors was about 150-160 mm^3. […] The solvent control group was given an equal amount of water for injection. The diameter of the transplanted tumor was measured twice a week during the entire experiment, and the body weight of the mice was also weighed. The calculation formula of tumor volume (TV) is: TV=1/2×a×b^2, where a and b respectively represent the length and width of the tumor. The relative tumor volume (RTV) was calculated based on the measured results and the formula was: RTV=Vt/V0, where V0 is the tumor volume measured at grouping and dosing (d0), and Vt is the tumor volume at each measurement.

Chain of FGFR1 kinase domain recombinant protein (P11362 478-767): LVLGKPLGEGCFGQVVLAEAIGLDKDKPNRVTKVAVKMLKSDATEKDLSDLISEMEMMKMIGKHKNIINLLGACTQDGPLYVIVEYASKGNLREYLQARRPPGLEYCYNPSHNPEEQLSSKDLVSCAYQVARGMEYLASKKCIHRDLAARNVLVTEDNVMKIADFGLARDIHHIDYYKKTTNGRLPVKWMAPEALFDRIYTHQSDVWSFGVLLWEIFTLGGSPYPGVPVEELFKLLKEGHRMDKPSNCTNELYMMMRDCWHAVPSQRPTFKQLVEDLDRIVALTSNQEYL

Compound	IC50 [1]	inhibition at 0.1 µM [1]	inhibition at 0.01 µM (SNU16 cells)	inhibition at 0.1 µM (SNU16 cells)	inhibition at 1 µM (SNU16 cells)	further results
CNC(=O)c1cccc2cc(Oc3ccnc(NC(=O)c4ccc(N5CCOCC5)cc4)c3)ccc12 [Compound S7]	< 10 nM	91%	30.1%	53.3%	60.5%	–
CNC(=O)c1cccc2cc(Oc3ccnc(NC(=O)c4ccc(N5CC(C)OC(C)C5)cc4)c3)ccc12 (centres unmarked) [Compound S8]	< 10 nM	93%	23.2%	36.3%	48.1%	–
CNC(=O)c1cccc2cc(Oc3ccnc(NC(=O)c4ccc(OCCN5CC(F)C5)cc4)c3)ccc12 [Compound S1]	< 100 nM	72%	–	–	–	–
CNC(=O)c1cccc2cc(Oc3ccnc(NC(=O)c4ccc(N5CCN(C)CC5)cc4)c3)ccc12 [Compound S5]	–	87%	60.4%	60.1%	57.8%	IC50 (SNU16 cells): 13.8 nM
CNC(=O)n1ccc2cc(Oc3ccnc(NC(=O)c4ccc(C5CCN(CCO)CC5)cc4)c3)c(OCCOC)cc21 [Compound E7090, reference compound]	–	–	–	–	–	Relative tumor proliferation rate T/C (%) ([2]; 12.5 mg/Kg): 26%; Relative tumor proliferation rate T/C (%) ([3]; 6.25 mg/Kg): 49%; Relative tumor proliferation rate T/C (%) ([3]; 25 mg/Kg): 17%; Relative tumor proliferation rate T/C (%) ([3]; 50 mg/Kg): 18%; Relative tumor proliferation rate T/C (%) ([4]; 6.25 mg/Kg): 46%; Relative tumor proliferation rate T/C (%) ([4]; 12.5 mg/Kg): 21%; Relative tumor proliferation rate T/C (%) ([4]; 25 mg/Kg): 13%; Relative tumor proliferation rate T/C (%) ([4]; 50 mg/Kg): 8%
CNC(=O)c1cccc2cc(Oc3ccnc(NC(=O)c4ccc(OCCN5CC(F)(F)C5)cc4)c3)ccc12 [Compound S2]	< 100 nM	80%	–	–	–	–
COc1cc(CCc2cc(NC(=O)c3ccc(N4CC(C)NC(C)C4)cc3)n[nH]2)cc(OC)c1 (centres unmarked) [AZD4547, reference compound]	–	–	–	–	–	Body weight (g) d0 ([2]; 10 mg/kg po qd/21, d0): 20.1 g; TV (mm^3, mean ± SD) d0 ([2]; 10 mg/kg po qd/21, d0): 103 ± 18 mm^3; Body weight (g) d21 ([2]; 10 mg/kg po qd/21, d21): 22.4 g; RTV (mean ± SD) ([2]; 10 mg/kg po qd/21, d21): 8.21 ± 3.91; T/C (%) ([2]; 10 mg/kg po qd/21, d21): 59.80%; TV (mm^3, mean ± SD) d21 ([2]; 10 mg/kg po qd/21, d21): 790 ± 247 mm^3
CNC(=O)c1cccc2cc(Oc3ccnc(NC(=O)c4ccc(C5CCNCC5)cc4)c3)ccc12 [Compound S6]	< 10 nM	84%	45.1%	63.5%	59.6%	IC50 (SNU16 cells): 15.9 nM
CNC(=O)c1cccc2cc(Oc3ccnc(NC(=O)c4ccc(OCCN5CCCC5)cc4)c3)ccc12 [Compound S4]	< 10 nM	74%	55.3%	61%	59%	IC50 (SNU16 cells): 29.2 nM
CNC(=O)c1cccc2cc(Oc3ccnc(NC(=O)c4ccc(OCC5(N)CC5)cc4)c3)ccc12 [Compound S3]	< 10 nM	90%	–	–	–	–

Further lines, with some results ahead:

IC50 [1]	inhibition at 0.1 µM [1]	Compound	inhibition at 0.01 µM (SNU16 cells)	inhibition at 0.1 µM (SNU16 cells)	inhibition at 1 µM (SNU16 cells)	further results
< 100 nM	58%	CNC(=O)c1cccc2cc(Oc3ccnc(NC(=O)c4cnc(N5C[C@@H](C)N[C@@H](C)C5)nc4)c3)ccc12 [Compound S16]	26.4%	55.3%	61.6%	–
< 10 nM	86%	CNC(=O)c1cccc2cc(Oc3ccnc(NC(=O)c4ccc(NCC5(O)CCOCC5)cc4)c3)ccc12 [Compound S23]	–	–	–	–
< 10 nM	94%	CNC(=O)c1cccc2cc(Oc3ccnc(NC(=O)c4ccc(N5C[C@@H](C)N[C@@H](C)C5)cc4)n3)ccc12 [Compound S20]	–	–	–	–
< 100 nM	59%	CNC(=O)c1cccc2cc(Oc3ccnc(NC(=O)c4csc(N5CCN(C)CC5)n4)c3)ccc12 [Compound S17]	–	–	–	–
< 100 nM	71%	CNC(=O)c1cccc2cc(Oc3ccnc(NC(=O)c4ccc(N5C[C@@H](C)N[C@@H](C)C5)cc4C)c3)ccc12 [Compound S15]	–	–	–	–
< 10 nM	87%	COC(=O)c1cccc2cc(Oc3ccnc(NC(=O)c4ccc(N5C[C@@H](C)N[C@@H](C)C5)cc4)c3)ccc12 [Compound S24]	–	–	–	–
< 1000 nM	40%	CNC(=O)c1cccc2cc(Oc3ccnc(NC(=O)c4ccc(N5C[C@@H](C)N[C@@H](C)C5)cc4OC)c3)ccc12 [Compound S14]	–	–	–	–
> 1000 nM	23%	CNC(=O)c1cccc2cc(Oc3ccnc(NC(=O)c4ccc(N5C[C@@H](C)N[C@@H](C)C5)cc4F)c3)ccc12 [Compound S13]	–	–	–	–
< 10 nM	95%	CNC(=O)c1cccc2cc(Oc3ccnc(NC(=O)c4ccc(N5CCNC(C)C5)cc4)c3)ccc12 (centres unmarked) [Compound S9]	70.9%	73.2%	73.3%	IC50 (SNU16 cells): 13.8 nM
< 100 nM	65%	CNC(=O)c1cccc2cc(Oc3ccnc(NC(=O)c4coc(N5CCN(C)CC5)n4)c3)ccc12 [Compound S18]	–	–	–	–
< 1000 nM	44%	CNC(=O)c1cccc2cc(Oc3ccnc(NC(=O)c4ccc(CN5CCN(C)CC5)c(C(F)(F)F)c4)c3)ccc12 [Compound S12]	–	–	–	–
< 10 nM	86%	CNC(=O)c1cccc2cc(Oc3ccnc(NC(=O)c4cnn(CCO)c4)c3)ccc12 [Compound S19]	–	–	–	–
< 10 nM	89%	CNC(=O)c1cccc2cc(Oc3ccnc(NC(=O)c4ccc(N5CCN(CCO)CC5)cc4)c3)ccc12 [Compound S11]	–	–	–	–
